Experimental data published in patent publication US9850283B2, “Macrocyclic inhibitors of the PD-1/PD-L1 and CD80(B7-1)/PD-L1 protein/protein interactions” (BRISTOL-MYERS SQUIBB COMPANY, priority 2013, dated 2017).
Read-outs that look alike come from different tables or passages of the source. Starred links: 1 amine or outer side, 2 acyl side, 3 side chain; linkers in the order of their positions; H or OH if unused. Positions of bridges follow the written chain, without caps; N, C: chain ends. Non-standard residues stand in square brackets, D forms with d. Residues, ends and D or L forms follow the SMILES beside them. ξ: configuration not given here. *: point of attachment. X8 = COc1cccc(-c2[nH]c3ccccc3c2C[C@H](N[*:1])C(=O)[*:2])c1; Phe(3,4,5-F3) = N[C@@H](Cc1cc(F)c(F)c(F)c1)C(=O)O; NHTrityl = c1ccc(C(N*)(c2ccccc2)c2ccccc2)cc1; Phe(4-CH2NH2) = NCc1ccc(C[C@H](N)C(=O)O)cc1; Phe(3-F) = N[C@@H](Cc1cccc(F)c1)C(=O)O; Pro(4R-NH2) = N[C@H]1CN[C@H](C(=O)O)C1; d(cisHyp) = O=C(O)[C@H]1C[C@@H](O)CN1; Bta = N[C@@H](Cc1csc2ccccc12)C(=O)O; NMeIle(3ξ) = CCC(C)[C@H](NC)C(=O)O; Hyp = O=C(O)[C@@H]1C[C@@H](O)CN1; NMeF = CN[C@@H](Cc1ccccc1)C(=O)O; 4Pal = N[C@@H](Cc1ccncc1)C(=O)O; dNMeE = CN[C@H](CCC(=O)O)C(=O)O; NMeNle = CCCC[C@H](NC)C(=O)O; Pen = CC(C)(S)[C@H](N)C(=O)O; ξR = N=C(N)NCCCC(N)C(=O)O; NMeA = CN[C@@H](C)C(=O)O; Dab = NCC[C@H](N)C(=O)O; dAze = O=C(O)[C@H]1CCN1; Dap = NC[C@H](N)C(=O)O; ξC = NC(CS)C(=O)O; Sar = CNCC(=O)O

Experiments:
[1] = target: T1, LK35.2-hPD-L1 cells / PE-labeled PD-1-Ig (Homo sapiens, UniProt Q9NZQ7); experiment: LK35.2-hPD-L1 cell binding high-content screening assay; assay type: cell-based
T1 construct: expressed in transfected cells; host or cells: LK35.2 mouse B cell line
T1 sequence (Q9NZQ7 19-290): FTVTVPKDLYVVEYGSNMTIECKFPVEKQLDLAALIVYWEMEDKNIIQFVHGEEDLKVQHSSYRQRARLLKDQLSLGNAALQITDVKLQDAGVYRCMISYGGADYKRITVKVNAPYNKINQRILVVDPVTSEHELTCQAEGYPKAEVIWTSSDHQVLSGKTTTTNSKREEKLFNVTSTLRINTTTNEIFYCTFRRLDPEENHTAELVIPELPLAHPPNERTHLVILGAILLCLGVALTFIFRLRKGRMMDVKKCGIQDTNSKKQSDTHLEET
In short: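 Readout: high-content imaging of PE-PD-1-Ig bound to LK35.2-hPD-L1 cells. Cells plated overnight (RPMI/10% FCS); compound + 1 nM PE-PD-1-Ig, 1 h, 37 °C; 3× dPBS wash before imaging.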

[2] = target: T2, Human PD-L1/PD-1 (Homo sapiens, UniProt Q9NZQ7); experiment: HTRF PD-1-Ig/PD-L1-His binding assay (human PD-L1)
T2 construct: made in house; host or cells: HEK293T
T2 sequence (Q9NZQ7 with tags, fused parts or gaps): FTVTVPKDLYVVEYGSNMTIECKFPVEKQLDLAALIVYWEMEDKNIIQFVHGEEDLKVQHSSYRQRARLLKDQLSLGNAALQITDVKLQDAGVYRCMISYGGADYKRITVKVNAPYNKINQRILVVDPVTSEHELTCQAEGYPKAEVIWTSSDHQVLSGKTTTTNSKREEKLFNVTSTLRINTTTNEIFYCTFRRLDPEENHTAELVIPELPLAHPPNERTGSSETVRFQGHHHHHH
In short: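 Soluble PD-1-Ig binding to PD-L1-His measured by HTRF in dPBS with 0.1% BSA and 0.05% Tween-20. Detection used europium cryptate anti-Ig antibody (1 nM final) and APC anti-His antibody (20 nM final) added on top of the binding reaction.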

[3] = cluster symbol, cell line of CBA not given (LK35.2-hPD-L1 or 293T-hPD-L1), read-out: CBA IC50 cluster
[4] = cluster symbol, read-out: HTRF IC50 cluster
[5] = cell binding assay, cell line not given, cluster symbol, read-out: CBA IC50 cluster

CCCC[C@H]1C(=O)N2CCC[C@@H]2C(=O)N2C[C@H](N)C[C@H]2C(=O)N[C@@H](C(C)C)C(=O)N(C)[C@@H](Cc2ccccc2)C(=O)N[C@@H](Cc2ccc(O)cc2)C(=O)N2CC[C@@H]2C(=O)N[C@@H](Cc2c[nH]c3ccccc23)C(=O)N[C@@H](Cc2ccc(O)cc2)C(=O)N[C@@H](CC(C)C)C(=O)N[C@H](C(=O)NCC(N)=O)CSCC(=O)N[C@@H](Cc2cc(F)c(F)c(F)c2)C(=O)N(C)[C@@H](Cc2ccccc2)C(=O)N1C [Example 3192] ({CH2CO}-[Phe(3,4,5-F3)][NMeF][NMeNle][dP][Pro(4R-NH2)]V[NMeF]Y[dAze]WYLCG-NH2; thioether N-13)
IC50 [1, 3]: 0.158 to 4.71 nM
IC50 [2, 4]: 0.385 to 6.74 nM

CCCC[C@H]1C(=O)N(C)[C@@H](CCCC)C(=O)N[C@@H](CC(C)C)C(=O)N[C@H](C(=O)NCC(N)=O)CSCC(=O)N[C@@H](Cc2ccc(O)cc2)C(=O)N(C)[C@@H](C)C(=O)N[C@@H](CC(N)=O)C(=O)N2CCC[C@H]2C(=O)N[C@@H](Cc2c[nH]cn2)C(=O)NCC(=O)N2C[C@H](O)C[C@H]2C(=O)N[C@@H](Cc2c[nH]c3ccccc23)C(=O)N[C@@H](CO)C(=O)N[C@@H](Cc2c[nH]c3ccccc23)C(=O)N1C [Example 5122] ({CH2CO}-Y[NMeA]NPHG[Hyp]WSW[NMeNle][NMeNle]LCG-NH2; thioether N-14)
IC50 ([1]; cell binding assay, cell line not given, value given instead of cluster, read-out: CBA IC50 value): 134 nM
IC50 ([2]; value given instead of cluster, read-out: HTRF IC50 value): 34.8 nM

CCCC[C@H]1C(=O)N(C)CC(=O)N[C@@H](CC(=O)O)C(=O)N[C@@H](C(C)C)C(=O)N(C)[C@@H](Cc2ccccc2)C(=O)N[C@@H](Cc2ccc(CN)cc2)C(=O)N(C)CC(=O)N[C@@H](Cc2csc3ccccc23)C(=O)N[C@@H](Cc2ccc(O)cc2)C(=O)N[C@@H](CC(C)C)C(=O)N[C@H](C(=O)NCC(N)=O)CSCC(=O)N[C@@H](Cc2cccc(F)c2)C(=O)N(C)[C@@H](Cc2ccccc2)C(=O)N1C [Example 3121] ({CH2CO}-[Phe(3-F)][NMeF][NMeNle][Sar]DV[NMeF][Phe(4-CH2NH2)][Sar][Bta]YLCG-NH2; thioether N-13)
IC50 [1, 3]: 0.158 to 4.71 nM
IC50 [2, 4]: 6.76 to 30.3 nM

CCCC[C@H]1C(=O)N(C)[C@@H](C(C)CC)C(=O)N[C@@H](CN)C(=O)N[C@H](C(=O)NCC(N)=O)CSCC(=O)N[C@@H](Cc2ccc(O)cc2)C(=O)N(C)[C@@H](C)C(=O)N[C@@H](CC(N)=O)C(=O)N2CCC[C@H]2C(=O)N[C@@H](Cc2c[nH]cn2)C(=O)N[C@@H](CCC(=O)O)C(=O)N2C[C@H](O)C[C@H]2C(=O)N[C@@H](Cc2c[nH]c3ccccc23)C(=O)N[C@@H](CCN)C(=O)N[C@@H](Cc2c[nH]c3ccccc23)C(=O)N1C (stereo partly shown) [Example 5142] ({CH2CO}-Y[NMeA]NPHE[Hyp]W[Dab]W[NMeNle][NMeIle(3ξ)][Dap]CG-NH2; thioether N-14)
IC50 [1, 5]: 4.78 to 72.9 nM
IC50 [2, 4]: 6.76 to 30.3 nM

CCCC[C@H]1C(=O)N(C)CC(=O)N[C@@H](CC(=O)O)C(=O)N[C@@H](C(C)C)C(=O)N(C)[C@@H](Cc2ccccc2)C(=O)N[C@@H](Cc2ccc(O)cc2)C(=O)N(C)CC(=O)N[C@@H](Cc2c[nH]c3ccccc23)C(=O)N[C@@H](Cc2ccc(O)cc2)C(=O)N[C@@H](Cc2ccc(CN)cc2)C(=O)N[C@H](C(=O)NCC(N)=O)CSCC(=O)N[C@@H](Cc2ccccc2)C(=O)N(C)[C@@H](Cc2ccccc2)C(=O)N1C [Example 3536] ({CH2CO}-F[NMeF][NMeNle][Sar]DV[NMeF]Y[Sar]WY[Phe(4-CH2NH2)]CG-NH2; thioether N-13)
IC50 [1, 5]: 4.78 to 72.9 nM
IC50 [2, 4]: 6.76 to 30.3 nM

CCCC[C@H]1C(=O)N(C)[C@@H](CCCC)C(=O)NC(CCCNC(=N)N)C(=O)N[C@H](C(=O)NCC(N)=O)CSCC(=O)N[C@@H](Cc2ccc(O)cc2)C(=O)N(C)[C@@H](C)C(=O)N[C@@H](CC(N)=O)C(=O)N2CCC[C@H]2C(=O)N[C@@H](CN)C(=O)N[C@@H](CC(C)C)C(=O)N2C[C@H](O)C[C@H]2C(=O)N[C@@H](Cc2c[nH]c3ccccc23)C(=O)N[C@@H](CO)C(=O)N[C@@H](Cc2c(-c3cccc(OC)c3)[nH]c3ccccc23)C(=O)N1C (stereo partly shown) [Example 7003] ({CH2CO}-Y[NMeA]NP[Dap]L[Hyp]WS[X8][NMeNle][NMeNle][ξR]CG-NH2; thioether N-14)
IC50 [1, 5]: 4.78 to 72.9 nM
IC50 [2, 4]: 0.385 to 6.74 nM

CCCC[C@H]1C(=O)N(C)[C@@H](CCCC)C(=O)N[C@@H](C)C(=O)N[C@H](C(=O)NCC(=O)O)CSCC(=O)N[C@@H](Cc2ccc(O)cc2)C(=O)N(C)[C@@H](C)C(=O)N[C@@H](CC(N)=O)C(=O)N2CCC[C@H]2C(=O)N[C@@H](Cc2cnc[nH]2)C(=O)N[C@@H](CC(C)C)C(=O)N[C@@H](CCCCN)C(=O)N[C@@H](Cc2c[nH]c3ccccc23)C(=O)N[C@@H](CO)C(=O)N[C@@H](Cc2c[nH]c3ccccc23)C(=O)N1C [Example 1238]
IC50 [1, 3]: 4.78 to 72.9 nM
IC50 [2, 4]: 6.76 to 30.3 nM

CCCC[C@H]1C(=O)N(C)[C@@H](CCCC)C(=O)N[C@@H](CCCNC(=N)N)C(=O)NC(C(=O)N[C@@H](CO)C(N)=O)CSCC(=O)N[C@@H](Cc2ccc(O)cc2)C(=O)N(C)[C@@H](C)C(=O)N[C@@H](CC(N)=O)C(=O)N2CCC[C@H]2C(=O)N[C@@H](CO)C(=O)N[C@@H](CC(C)C)C(=O)N2C[C@H](O)C[C@H]2C(=O)N[C@@H](Cc2c[nH]c3ccccc23)C(=O)N[C@@H](CO)C(=O)N[C@@H](Cc2csc3ccccc23)C(=O)N1C (stereo partly shown) [Example 9075] ({CH2CO}-Y[NMeA]NPSL[Hyp]WS[Bta][NMeNle][NMeNle]R[ξC]S-NH2; thioether N-14)
IC50 [1, 5]: 0.158 to 4.71 nM
IC50 [2, 4]: 0.385 to 6.74 nM

CCCC[C@H]1C(=O)N2C[C@H](O)C[C@@H]2C(=O)N[C@H](CC(=O)NC(c2ccccc2)(c2ccccc2)c2ccccc2)C(=O)N[C@@H](C(C)C)C(=O)N(C)[C@@H](Cc2ccccc2)C(=O)N[C@@H](Cc2ccc(O)cc2)C(=O)N(C)[C@H](CCC(=O)O)C(=O)N[C@@H](Cc2c[nH]c3ccccc23)C(=O)N[C@@H](Cc2ccc(O)cc2)C(=O)N[C@@H](CCCCN)C(=O)N[C@H](C(=O)NCC(N)=O)CSCC(=O)N[C@@H](Cc2ccccc2)C(=O)N(C)[C@@H](Cc2ccccc2)C(=O)N1C [Example 3595] ({CH2CO}-F[NMeF][NMeNle][d(cisHyp)][dD](NHTrityl)V[NMeF]Y[dNMeE]WYKCG-NH2; thioether N-13)
IC50 ([1]; CBA IC50 value, cell binding assay, cell line not given, value given instead of cluster): 123 nM
IC50 ([2]; HTRF IC50 value, value given instead of cluster): 991 nM

CCCC[C@H]1C(=O)N(C)[C@@H](CCCC)C(=O)N[C@@H](CCCNC(=N)N)C(=O)N[C@H](C(=O)NCC(N)=O)CSCC(=O)N[C@@H](Cc2ccc(O)cc2)C(=O)N(C)[C@@H](C)C(=O)N[C@@H](CC(N)=O)C(=O)N2CCC[C@H]2C(=O)N[C@@H](Cc2ccncc2)C(=O)N[C@@H](CC(C)C)C(=O)N2C[C@H](O)C[C@H]2C(=O)N[C@@H](Cc2c[nH]c3ccccc23)C(=O)N[C@@H](CO)C(=O)N[C@@H](Cc2c[nH]c3ccccc23)C(=O)N1C [Example 7028] ({CH2CO}-Y[NMeA]NP[4Pal]L[Hyp]WSW[NMeNle][NMeNle]RCG-NH2; thioether N-14)
IC50 [1, 5]: 0.158 to 4.71 nM
IC50 [2, 4]: 6.76 to 30.3 nM

CCCC[C@H]1C(=O)N(C)[C@@H](CCCC)C(=O)N[C@@H](CCCNC(=N)N)C(=O)N[C@H](C(=O)NCC(N)=O)C(C)(C)SCC(=O)N[C@@H](Cc2ccccc2)C(=O)N(C)[C@@H](C)C(=O)N[C@@H](CC(N)=O)C(=O)N2CCC[C@H]2C(=O)N[C@@H](Cc2cnc[nH]2)C(=O)N[C@@H](CC(C)C)C(=O)N(C)CC(=O)N[C@@H](Cc2c[nH]c3ccccc23)C(=O)N[C@@H](CO)C(=O)N[C@@H](Cc2c[nH]c3ccccc23)C(=O)N1C [Example 1083] ({CH2CO}-F[NMeA]NPHL[Sar]WSW[NMeNle][NMeNle]R[Pen]G-NH2; thioether N-14)
IC50 [1, 3]: 4.78 to 72.9 nM
IC50 [2, 4]: 0.385 to 6.74 nM
